SMILES strings stand for the structures. Structures can show the parent of a compound that is named as a salt.

Type in all cases: biochemical
Settings in all cases: FDA-approved drug screen

One experiment deals with T1, recombinant PRL-1 (Homo sapiens, UniProt Q93096).
T1 construct: 6xHis (N, cleaved yes); made in house; host or cells: E. coli One Shot BL21 Star
T1 sequence (Q93096 1-173): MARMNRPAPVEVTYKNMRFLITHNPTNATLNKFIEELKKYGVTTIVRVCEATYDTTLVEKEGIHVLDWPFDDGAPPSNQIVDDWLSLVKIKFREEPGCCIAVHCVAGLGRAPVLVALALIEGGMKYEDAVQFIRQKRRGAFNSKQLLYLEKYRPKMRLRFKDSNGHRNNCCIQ
As to the kind of experiment: In vitro phosphatase assay (DiFMUP hydrolysis), PRL-1. Further: test concentration or dose not given here.

A further experiment concerns the target T2, recombinant PRL-2 (Homo sapiens, UniProt Q12974).
T2 construct: 6xHis (N, cleaved yes); made in house; host or cells: E. coli One Shot BL21 Star
T2 sequence (Q12974 1-167): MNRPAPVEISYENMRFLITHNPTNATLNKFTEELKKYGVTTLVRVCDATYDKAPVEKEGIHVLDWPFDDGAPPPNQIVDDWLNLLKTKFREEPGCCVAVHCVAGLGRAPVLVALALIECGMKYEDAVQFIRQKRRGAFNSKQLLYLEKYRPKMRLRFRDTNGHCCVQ
As to the kind of experiment: In vitro phosphatase assay (DiFMUP hydrolysis), PRL-2.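 Further: PRL-2 activity read as DiFMUP hydrolysis after 20 min at room temperature with drug, enzyme first pre-reduced at 4 °C for 20 min.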

The next experiment addresses T3, recombinant PRL-3 (Homo sapiens, UniProt O75365).
T3 construct: 6xHis (N, cleaved yes); made in house; host or cells: E. coli One Shot BL21 Star
Description: In vitro phosphatase assay (DiFMUP hydrolysis), PRL-3. Further: test concentration or dose not given here.

T3 sequence (O75365 whole entry): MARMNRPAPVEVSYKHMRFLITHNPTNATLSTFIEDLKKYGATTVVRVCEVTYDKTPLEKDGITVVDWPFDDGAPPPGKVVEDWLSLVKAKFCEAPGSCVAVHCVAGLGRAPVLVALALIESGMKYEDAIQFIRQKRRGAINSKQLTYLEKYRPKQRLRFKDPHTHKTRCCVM
Description for recombinant PRL-2: Briefly, protein was diluted in reaction buffer and allowed to incubate at 4 °C for 20 min to allow for full reduction of the active site. DiFMUP, drug, and protein were added, and plates were incubated for 20 min at room temperature. Fluorescence intensities were measured on a Cytation 5 plate reader (Biotek) at an EX:360 nm and EM:460 nm. […] Inhibition selectivity for PRLs over a panel of other phosphatases was determined using PhosphataseProfiler (Eurofins, Cat # PP260).

In the case of `CN1CCN(C(c2ccccc2)c2ccccc2)CC1.Cl.Cl` [Cyclizine 2HCl], the “% Phosphatase Activity (compared to DMSO) PRL-1” value on recombinant PRL-1 (compared to DMSO) was determined as 94%. Also, the “% Phosphatase Activity (compared to DMSO) PRL-2” value at recombinant PRL-2 (compared to DMSO) worked out at 116%. On recombinant PRL-3 (compared to DMSO), the “% Phosphatase Activity (compared to DMSO) PRL-3” value was 69%.

For the compound `CNC[C@H](O)c1cccc(O)c1` [Phenylephrine HCl], the “% Phosphatase Activity (compared to DMSO) PRL-1” value at recombinant PRL-1 (compared to DMSO) was found to be 103%. The “% Phosphatase Activity (compared to DMSO) PRL-2” value at recombinant PRL-2 (compared to DMSO) is 98%. Moreover, the “% Phosphatase Activity (compared to DMSO) PRL-3” value on recombinant PRL-3 (compared to DMSO) amounted to 85%.

As to `CC12CC3CC(C)(C1)CC(N)(C3)C2` [Memantine HCl], on recombinant PRL-1 (compared to DMSO), the “% Phosphatase Activity (compared to DMSO) PRL-1” value stood at 83%. Also, the “% Phosphatase Activity (compared to DMSO) PRL-2” value on recombinant PRL-2 (compared to DMSO) worked out at 107%. Besides, the “% Phosphatase Activity (compared to DMSO) PRL-3” value on recombinant PRL-3 (compared to DMSO) was found to be 94%.

For `CC(C)(S)[C@@H](N)C(=O)O` [Penicillamine], at recombinant PRL-1 (compared to DMSO), the “% Phosphatase Activity (compared to DMSO) PRL-1” value worked out at 85%. Further, the “% Phosphatase Activity (compared to DMSO) PRL-2” value on recombinant PRL-2 (compared to DMSO) worked out at 100%. Further, the “% Phosphatase Activity (compared to DMSO) PRL-3” value on recombinant PRL-3 (compared to DMSO) was 97%.

In the case of `Cc1cnc(Nc2ccc(OCCN3CCCC3)cc2)nc1Nc1cccc(S(=O)(=O)NC(C)(C)C)c1` [TG101348 (SAR302503)], the “% Phosphatase Activity (compared to DMSO) PRL-1” value on recombinant PRL-1 (activity compared to DMSO) is given as 97%. The “% Phosphatase Activity (compared to DMSO) PRL-2” value at recombinant PRL-2 (activity compared to DMSO) is listed as 96%. Moreover, the “% Phosphatase Activity (compared to DMSO) PRL-3” value at recombinant PRL-3 (activity compared to DMSO) was 95%.

On to `C[C@]1(Cn2ccnn2)[C@H](C(=O)O)N2C(=O)C[C@H]2S1(=O)=O` [Tazobactam], for which the “% Phosphatase Activity (compared to DMSO) PRL-1” value on recombinant PRL-1 (activity compared to DMSO) is on record as 102%. The “% Phosphatase Activity (compared to DMSO) PRL-2” value on recombinant PRL-2 (activity compared to DMSO) is given as 103%. In addition, the “% Phosphatase Activity (compared to DMSO) PRL-3” value at recombinant PRL-3 (activity compared to DMSO) was 86%.

`COC(=O)N(C)c1c(N)nc(-c2nn(Cc3ccccc3F)c3ncccc23)nc1N` [Riociguat (BAY 63-2521)]: the “% Phosphatase Activity (compared to DMSO) PRL-1” value on recombinant PRL-1 (compared to DMSO) was 99%. Moreover, on recombinant PRL-2 (compared to DMSO), the “% Phosphatase Activity (compared to DMSO) PRL-2” value worked out at 82%. Moreover, the “% Phosphatase Activity (compared to DMSO) PRL-3” value on recombinant PRL-3 (compared to DMSO) is listed as 90%.

Take `CCCc1ncc(C[n+]2ccccc2C)c(N)n1.Cl.[Cl-]` [Amprolium HCl]: the “% Phosphatase Activity (compared to DMSO) PRL-1” value at recombinant PRL-1 (compared to DMSO) is reported as 97%. In addition, on recombinant PRL-2 (compared to DMSO), the “% Phosphatase Activity (compared to DMSO) PRL-2” value is given as 97%. For the same compound, the “% Phosphatase Activity (compared to DMSO) PRL-3” value on recombinant PRL-3 (compared to DMSO) is recorded as 94%.

Regarding `COc1ccc2cc(CCC(C)=O)ccc2c1` [Nabumetone], the “% Phosphatase Activity (compared to DMSO) PRL-1” value on recombinant PRL-1 (compared to DMSO) stood at 91%. Also, at recombinant PRL-2 (compared to DMSO), the “% Phosphatase Activity (compared to DMSO) PRL-2” value is listed as 102%. Moreover, the “% Phosphatase Activity (compared to DMSO) PRL-3” value on recombinant PRL-3 (compared to DMSO) is 68%.

For the compound `NC(=O)c1ncn([C@@H]2O[C@H](CO)[C@@H](O)[C@H]2O)c1N` [Acadesine], the “% Phosphatase Activity (compared to DMSO) PRL-1” value at recombinant PRL-1 (compared to DMSO) worked out at 91%. Moreover, at recombinant PRL-2 (compared to DMSO), the “% Phosphatase Activity (compared to DMSO) PRL-2” value is given as 100%. The “% Phosphatase Activity (compared to DMSO) PRL-3” value at recombinant PRL-3 (compared to DMSO) is listed as 95%.

Turning to `Cc1cc(C)nc(NS(=O)(=O)c2ccc(N)cc2)n1` [Sulfamethazine], the “% Phosphatase Activity (compared to DMSO) PRL-1” value at recombinant PRL-1 (activity compared to DMSO) is given as 108%. Besides, at recombinant PRL-2 (activity compared to DMSO), the “% Phosphatase Activity (compared to DMSO) PRL-2” value worked out at 105%. For the same compound, the “% Phosphatase Activity (compared to DMSO) PRL-3” value on recombinant PRL-3 (activity compared to DMSO) is recorded as 82%.

Turning to `NCC[C@H](O)C(=O)N[C@@H]1C[C@H](N)[C@@H](O[C@H]2O[C@H](CN)[C@@H](O)[C@H](O)[C@H]2O)[C@H](O)[C@H]1O[C@H]1O[C@H](CO)[C@@H](O)[C@H](N)[C@H]1O` [Amikacin disulfate], the “% Phosphatase Activity (compared to DMSO) PRL-1” value on recombinant PRL-1 (compared to DMSO) is 96%. At recombinant PRL-2 (compared to DMSO), the “% Phosphatase Activity (compared to DMSO) PRL-2” value was found to be 152%. For the same compound, at recombinant PRL-3 (compared to DMSO), the “% Phosphatase Activity (compared to DMSO) PRL-3” value was 110%.

For `Nc1nc(Cl)nc2c1ncn2[C@@H]1O[C@H](CO)[C@@H](O)[C@@H]1F` [Clofarabine], the “% Phosphatase Activity (compared to DMSO) PRL-1” value on recombinant PRL-1 (compared to DMSO) is listed as 97%. Further, on recombinant PRL-2 (compared to DMSO), the “% Phosphatase Activity (compared to DMSO) PRL-2” value came out at 100%. Also, on recombinant PRL-3 (compared to DMSO), the “% Phosphatase Activity (compared to DMSO) PRL-3” value is 81%.

As to `C[N+]1(C)CCCC(OC(=O)C(O)(c2ccccc2)c2ccccc2)C1` (stereo not drawn) [Mepenzolate Bromide], the “% Phosphatase Activity (compared to DMSO) PRL-1” value on recombinant PRL-1 (compared to DMSO) came out at 93%. The “% Phosphatase Activity (compared to DMSO) PRL-2” value at recombinant PRL-2 (compared to DMSO) is recorded as 93%. Moreover, the “% Phosphatase Activity (compared to DMSO) PRL-3” value at recombinant PRL-3 (compared to DMSO) came out at 80%.

With `O=c1c(-n2ccnn2)c[nH]n1-c1cc(N2CCOCC2)ncn1` [Molidustat (BAY 85-3934)], the “% Phosphatase Activity (compared to DMSO) PRL-1” value on recombinant PRL-1 (compared to DMSO) is 90%. Further, the “% Phosphatase Activity (compared to DMSO) PRL-2” value at recombinant PRL-2 (compared to DMSO) is reported as 74%. The “% Phosphatase Activity (compared to DMSO) PRL-3” value on recombinant PRL-3 (compared to DMSO) is 84%.

With `O=C1CC[C@@]2(O)[C@H]3Cc4ccc(O)c5c4[C@@]2(CCN3CC2CC2)[C@H]1O5` [Naltrexone HCl], the “% Phosphatase Activity (compared to DMSO) PRL-1” value at recombinant PRL-1 (compared to DMSO) came out at 100%. In addition, the “% Phosphatase Activity (compared to DMSO) PRL-2” value on recombinant PRL-2 (compared to DMSO) amounted to 120%. Further, at recombinant PRL-3 (compared to DMSO), the “% Phosphatase Activity (compared to DMSO) PRL-3” value came out at 95%.

In the case of `CC1(C)CCC(C)(C)c2cc(NC(=O)c3ccc(C(=O)O)cc3)ccc21` [Tamibarotene], the “% Phosphatase Activity (compared to DMSO) PRL-1” value on recombinant PRL-1 (activity compared to DMSO) amounted to 93%. The “% Phosphatase Activity (compared to DMSO) PRL-2” value on recombinant PRL-2 (activity compared to DMSO) turned out to be 80%. Further, the “% Phosphatase Activity (compared to DMSO) PRL-3” value at recombinant PRL-3 (activity compared to DMSO) was found to be 73%.

(Values after paper PMC8119466, “A screen of FDA-approved drugs identifies inhibitors of protein tyrosine phosphatase 4A3 (PTP4A3 or PRL-3)” (Scientific Reports, 2021).)
